ChEMBL document CHEMBL1154377, “Evaluation of basic, heterocyclic ring systems as templates for use as potassium competitive acid blockers (pCABs)” (Bioorg Med Chem Lett, 2009)

Experiments:
Cytochrome P450 2C9 = Cytochrome P450 2C9 (Homo sapiens, UniProt P11712)
Cytochrome P450 2C19 = Cytochrome P450 2C19 (Homo sapiens, UniProt P33261); experiment: Inhibition of CYP2C19; type: ADME
[1] = Intrinsic clearance in human liver microsomes; type: ADME, Microsome
[2] = Inhibition of H+/K+ ATPase at pH 7.4
Cytochrome P450 3A4 [3] = target: T1, Cytochrome P450 3A4 (Homo sapiens, UniProt P08684); experiment: Inhibition of CYP3A4 using diethoxyfluorescein substrate; type: ADME
[4] = Dissociation constant, pKa of the compound; type: physicochemical
[5] = Chromatographic hydrophobicity index at pH 7.4 by fast gradient HPLC; type: physicochemical; conditions: buffer
Cytochrome P450 2D6 = Cytochrome P450 2D6 (Homo sapiens, UniProt P10635); experiment: Inhibition of CYP2D6; type: ADME
[6] = Intrinsic clearance in rat liver microsomes; type: ADME, Microsome
Cytochrome P450 1A2 = target: T2, Cytochrome P450 1A2 (Homo sapiens, UniProt P05177); experiment: Inhibition of CYP1A2; type: ADME
T2 sequence (P05177 whole entry): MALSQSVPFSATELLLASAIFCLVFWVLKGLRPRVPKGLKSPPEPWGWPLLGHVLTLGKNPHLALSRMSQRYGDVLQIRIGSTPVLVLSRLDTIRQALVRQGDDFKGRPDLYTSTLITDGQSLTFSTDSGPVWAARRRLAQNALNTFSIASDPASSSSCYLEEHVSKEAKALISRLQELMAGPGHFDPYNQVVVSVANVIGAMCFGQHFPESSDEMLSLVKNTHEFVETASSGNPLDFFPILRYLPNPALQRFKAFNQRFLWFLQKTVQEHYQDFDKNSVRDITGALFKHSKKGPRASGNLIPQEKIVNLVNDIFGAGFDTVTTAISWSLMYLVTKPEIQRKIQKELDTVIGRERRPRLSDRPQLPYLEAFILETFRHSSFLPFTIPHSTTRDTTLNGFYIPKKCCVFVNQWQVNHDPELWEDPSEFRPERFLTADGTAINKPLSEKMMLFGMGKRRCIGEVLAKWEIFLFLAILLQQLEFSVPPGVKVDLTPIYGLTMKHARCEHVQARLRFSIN

Cytochrome P450 3A4 [7] = target: T1, Cytochrome P450 3A4; experiment: Inhibition of CYP3A4 using 7-benzyloxyquinoline substrate; type: ADME
[8] = Intrinsic clearance in dog liver microsomes; type: ADME, Canis lupus familiaris, Microsome
[9] = Inhibition of H+/K+ ATPase in parietal cells assessed as inhibition of histamine-stimulated [14C]aminopyrine accumulation
[10] = Inhibition of H+/K+ ATPase in parietal cells assessed as inhibition of pentagastrin-stimulated [14C]aminopyrine accumulation at 50 nM; type: cell-based

Cytochrome P450 2C19, sequence (P33261 whole entry): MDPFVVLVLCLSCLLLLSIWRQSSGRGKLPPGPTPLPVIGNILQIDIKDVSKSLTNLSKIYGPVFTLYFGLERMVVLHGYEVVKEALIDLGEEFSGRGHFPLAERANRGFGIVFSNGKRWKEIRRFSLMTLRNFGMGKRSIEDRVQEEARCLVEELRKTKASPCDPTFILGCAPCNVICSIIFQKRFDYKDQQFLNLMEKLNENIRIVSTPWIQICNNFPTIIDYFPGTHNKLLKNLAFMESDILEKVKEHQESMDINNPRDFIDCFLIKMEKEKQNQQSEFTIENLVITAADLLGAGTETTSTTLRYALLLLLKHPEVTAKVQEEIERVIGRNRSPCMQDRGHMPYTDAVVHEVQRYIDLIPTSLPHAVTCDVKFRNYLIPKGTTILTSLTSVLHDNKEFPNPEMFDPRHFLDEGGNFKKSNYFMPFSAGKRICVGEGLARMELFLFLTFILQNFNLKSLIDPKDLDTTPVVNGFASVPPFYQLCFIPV
Cytochrome P450 2D6, sequence (P10635 whole entry): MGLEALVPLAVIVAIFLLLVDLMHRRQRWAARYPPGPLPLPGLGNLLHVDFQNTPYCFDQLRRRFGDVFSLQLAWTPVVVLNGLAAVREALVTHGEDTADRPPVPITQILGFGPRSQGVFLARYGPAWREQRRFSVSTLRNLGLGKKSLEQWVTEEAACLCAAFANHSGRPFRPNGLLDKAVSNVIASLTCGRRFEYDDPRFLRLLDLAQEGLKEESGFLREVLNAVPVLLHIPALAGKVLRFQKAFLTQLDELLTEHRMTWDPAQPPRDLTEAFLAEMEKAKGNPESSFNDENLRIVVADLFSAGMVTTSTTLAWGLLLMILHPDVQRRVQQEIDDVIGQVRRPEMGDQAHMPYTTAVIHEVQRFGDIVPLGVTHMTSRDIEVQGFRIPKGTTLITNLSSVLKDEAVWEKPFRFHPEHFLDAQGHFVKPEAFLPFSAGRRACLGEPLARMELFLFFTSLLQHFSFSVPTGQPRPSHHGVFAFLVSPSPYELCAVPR
Cytochrome P450 2C9, sequence (P11712 whole entry): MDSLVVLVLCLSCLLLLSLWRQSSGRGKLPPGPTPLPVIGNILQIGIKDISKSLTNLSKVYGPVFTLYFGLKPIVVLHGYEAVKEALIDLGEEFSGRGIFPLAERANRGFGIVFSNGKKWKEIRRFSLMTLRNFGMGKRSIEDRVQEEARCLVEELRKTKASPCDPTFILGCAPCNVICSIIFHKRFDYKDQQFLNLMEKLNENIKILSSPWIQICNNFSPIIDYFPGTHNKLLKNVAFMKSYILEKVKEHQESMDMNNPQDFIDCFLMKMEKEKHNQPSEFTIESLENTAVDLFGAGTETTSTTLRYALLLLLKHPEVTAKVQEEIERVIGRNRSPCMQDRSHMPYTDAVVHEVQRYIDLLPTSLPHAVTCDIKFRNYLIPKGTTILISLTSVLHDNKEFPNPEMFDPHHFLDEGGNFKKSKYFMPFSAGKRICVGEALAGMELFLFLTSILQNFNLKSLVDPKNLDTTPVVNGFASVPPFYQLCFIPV
T1 sequence (P08684 whole entry): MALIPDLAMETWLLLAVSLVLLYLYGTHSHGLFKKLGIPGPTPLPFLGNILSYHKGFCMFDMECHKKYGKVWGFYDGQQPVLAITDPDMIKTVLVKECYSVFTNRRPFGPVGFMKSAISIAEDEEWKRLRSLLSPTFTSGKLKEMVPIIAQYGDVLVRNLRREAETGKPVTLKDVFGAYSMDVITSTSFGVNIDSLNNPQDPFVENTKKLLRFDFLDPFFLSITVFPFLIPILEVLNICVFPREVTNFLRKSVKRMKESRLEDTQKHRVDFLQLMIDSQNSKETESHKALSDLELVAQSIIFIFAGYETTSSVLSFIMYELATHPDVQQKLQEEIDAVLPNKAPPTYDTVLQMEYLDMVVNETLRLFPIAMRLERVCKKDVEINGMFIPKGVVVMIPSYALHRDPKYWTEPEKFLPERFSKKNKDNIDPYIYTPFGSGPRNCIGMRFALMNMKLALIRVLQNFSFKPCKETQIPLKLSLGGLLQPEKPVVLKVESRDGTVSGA

| Compound | IC50 (Cytochrome P450 2C9) | IC50 (Cytochrome P450 2C19) | CLint scaled [1] | pIC50 [2] | IC50 (Cytochrome P450 3A4 [3]) | pKa ([4]; read-out: pKa) | chromatographic logD [5] | IC50 (Cytochrome P450 2D6) | CLint scaled [6] | IC50 (Cytochrome P450 1A2) | IC50 (Cytochrome P450 3A4 [7]) | CLint scaled [8] | IC50 [9] | pKa [4] | inhibition [10] |
| --- | --- | --- | --- | --- | --- | --- | --- | --- | --- | --- | --- | --- | --- | --- | --- |
| C=CCn1c(C)c(C)c2cc(-n3ccccc3=O)nc(NCc3c(C)cccc3C)c21 | 0.5 µM | 6 µM | 13 mL/min/kg | 7.5 | 2.4 µM | 4 | 4.06 | 26 µM | 20 mL/min/kg | 62 µM | – | – | – | – | – |
| Cc1cccc(C)c1CNc1ccnn2c(C)c(C)nc12 | – | – | – | 6.1 | – | – | 3.53 | – | – | – | – | – | – | – | – |
| Cc1cccc(C)c1CNc1ccnc2c1nc(C)n2C | – | – | – | 4.5 | – | 5.81 | 2.27 | – | – | – | – | – | – | – | – |
| Cc1cccc(C)c1CNc1nc(-n2ccccc2=O)cc2c(C)c(C)[nH]c12 | 3.3 µM | 20 µM | 2.7 mL/min/kg | 7.4 | 3 µM | 4.71 | 3.18 | > 33 µM | 2.9 mL/min/kg | 29 µM | 90 µM | – | – | – | – |
| CCc1cccc(C)c1CNc1cc(C(N)=O)cn2c(C)c(C)nc12 | – | – | 6.5 mL/min/kg | – | – | – | – | – | 14 mL/min/kg | – | – | 3 mL/min/kg | 0.0234 µM | – | – |
| Cc1cccc(C)c1CNc1nccc2cc[nH]c12 | – | – | – | 6.8 | – | 8.63 | – | – | – | – | – | – | – | – | – |
| Cc1cccc(C)c1CNc1cccn2c(C)ncc12 | – | – | – | 4.1 | – | 6.03 | – | – | – | – | – | – | – | – | – |
| Cc1cccc(C)c1COc1cccn2c(C)c(C)nc12 | 16 µM | 6.2 µM | – | 7.6 | 5.5 µM | 7.41 | 3.38 | 2.3 µM | – | 0.7 µM | 18 µM | – | – | – | – |
| Cc1cccc(C)c1CNc1nc(-n2ccccc2=O)cc2c(C)c(C)n(CCO)c12 | 11.4 µM | 40 µM | 12.1 mL/min/kg | 6.8 | 5.6 µM | 4.5 | 3.12 | 45.5 µM | 21.9 mL/min/kg | > 100 µM | – | – | 0.251 µM | – | – |
| Cc1nc2c(OCc3ccccc3)cccn2c1CC#N | – | > 100 µM | 8 mL/min/kg | 7.4 | 9 µM | 7.28 | 4.2 | 82 µM | 8.5 mL/min/kg | 2 µM | 12 µM | – | 0.0166 µM | – | – |
| Cc1cccc(C)c1CNc1cc(C(=O)NCCO)cn2c(C)c(C)nc12 [LINAPRAZAN] | – | – | 1.3 mL/min/kg | – | – | 6.27 | 2.14 | – | 4 mL/min/kg | – | – | 0.9 mL/min/kg | 0.0562 µM | – | – |
| Cc1cccc(C)c1CNc1cccc2c1nc(C)n2C | 8.8 µM | 9.2 µM | 8 mL/min/kg | 5.5 | 13 µM | – | – | 35 µM | 47 mL/min/kg | 2.1 µM | 9 µM | – | 0.0447 µM | – | – |
| Cc1cccc(C)c1CNc1nccn2c(C)c(C)cc12 | 14 µM | 4.7 µM | 11 mL/min/kg | 7.6 | 4.7 µM | 7.92 | 3.54 | < 0.1 µM | 50 mL/min/kg | 6.1 µM | 1.6 µM | – | 0.141 µM | – | – |
| CCn1c(C)c(C)c2cc(-n3ccccc3=O)nc(NCc3c(C)cccc3C)c21 | 0.7 µM | 6.5 µM | 22 mL/min/kg | 7.4 | 2.9 µM | 4 | 3.9 | 18 µM | 41 mL/min/kg | 65 µM | – | – | 0.2 µM | – | – |
| Cc1cccc(C)c1CNc1nc(-c2cccc(=O)[nH]2)cc2c(C)c(C)[nH]c12 | 2.3 µM | 62 µM | – | 5.1 | 1.3 µM | – | 4.12 | 60 µM | – | > 100 µM | 2.2 µM | – | 0.316 µM | Insoluble | – |
| Cc1cccc(C)c1CNc1nc(N2CCOCC2=O)cc2c(C)c(C)[nH]c12 | 61 µM | 66 µM | 1.6 mL/min/kg | 5.9 | 22 µM | – | 2.83 | 25 µM | 4.3 mL/min/kg | 35 µM | 22 µM | – | 0.2 µM | Insoluble | – |
| Cc1cccc(C)c1CNc1nc(N2CCOCC2=O)cc2c(C)c(C)n(CCO)c12 | 13 µM | > 100 µM | 6.9 mL/min/kg | 6.6 | 6 µM | 5.4 | 2.93 | 36 µM | 6.5 mL/min/kg | > 100 µM | 11 µM | – | 0.0794 µM | – | – |
| Cc1[nH]c2c(NCc3ccccc3)nccc2c1C | – | – | – | 8.4 | – | 8.79 | – | – | – | – | – | – | – | – | 98.5% |

Further lines, with some results ahead:

| IC50 (Cytochrome P450 2C9) | IC50 (Cytochrome P450 2C19) | CLint scaled [1] | pIC50 [2] | IC50 (Cytochrome P450 3A4 [3]) | pKa ([4]; read-out: pKa) | chromatographic logD [5] | IC50 (Cytochrome P450 2D6) | CLint scaled [6] | IC50 (Cytochrome P450 1A2) | IC50 (Cytochrome P450 3A4 [7]) | CLint scaled [8] | IC50 [9] | pKa [4] | Compound | inhibition [10] |
| --- | --- | --- | --- | --- | --- | --- | --- | --- | --- | --- | --- | --- | --- | --- | --- |
| – | – | – | < 4 | – | – | – | – | – | – | – | – | – | – | Cc1cc2ncnc(NCc3c(C)cccc3C)c2s1 | – |
| 1.4 µM | 6.4 µM | – | 7.4 | 1 µM | 6.32 | 3.77 | 1.9 µM | – | 26 µM | 1.8 µM | – | 0.158 µM | – | Cc1cccc(C)c1CNc1nc(N2CCCC2=O)cc2c(C)c(C)[nH]c12 | – |
| – | – | – | < 4 | – | – | – | – | – | – | – | – | – | – | Cc1cccc(C)c1CNc1ncnc2c(C)csc12 | – |
| 68 µM | 27 µM | 3.4 mL/min/kg | 5.3 | 12 µM | 7.49 | 2.09 | < 0.1 µM | 14 mL/min/kg | 31 µM | 21 µM | 6.5 mL/min/kg | 0.0741 µM | – | Cc1cccc(C)c1CNc1nccc2c1nc(C)n2C | – |
| 2.7 µM | 8.2 µM | 1.3 mL/min/kg | 6.5 | 1.6 µM | – | 2.54 | 0.7 µM | 6 mL/min/kg | 22 µM | 1.6 µM | – | 0.158 µM | – | Cc1cccc(C)c1CNc1nc(N2CCNC2=O)cc2c(C)c(C)[nH]c12 | – |
| > 100 µM | > 10 µM | 2.8 mL/min/kg | 5.9 | 8.8 µM | – | 2.53 | 0.3 µM | 9 mL/min/kg | > 100 µM | > 100 µM | – | 0.0631 µM | – | Cc1cccc(C)c1CNc1ncnc2c(C)c(C)[nH]c12 | – |
| – | – | – | 7.1 | – | – | 3.4 | – | – | – | – | – | 0.282 µM | – | Cc1cccc(C)c1CNc1nccn2c(C)c(C)nc12 | – |
| – | – | – | 9 | – | 8.71 | – | – | – | – | – | – | – | – | Cc1cccc(C)c1CNc1nccc2c(C)c[nH]c12 | 92.5% |
| 6.7 µM | 0.3 µM | < 0.5 mL/min/kg | 6.3 | 7.7 µM | – | 5.31 | 0.6 µM | 3.9 mL/min/kg | 3.7 µM | 6.6 µM | – | 0.316 µM | Insoluble | Cc1cccc(C)c1CNc1nc(-c2ccccc2)cc2c(C)c(C)[nH]c12 | – |
| 33 µM | 1.8 µM | 5 mL/min/kg | 9.4 | 9 µM | – | 2.29 | < 0.1 µM | 50 mL/min/kg | 14 µM | 9.6 µM | 19 mL/min/kg | 0.0708 µM | – | Cc1cccc(C)c1CNc1nccc2c(C)c(C)[nH]c12 | 67.3% |
